{
  "source": "patent US6149904A",
  "about": "“Method for inhibiting tumor cell growth by administering to tumor cells expressing a nucleic acid encoding a connexin and a pro-drug” (The Regents of the University of California, priority 1997, dated 2000)",
  "key": {"9L glial tumor cells": {"system": "9L glial tumor cells", "assay": "GCV therapy after injecting HSV-tk+ PA317 fibroblasts into pre-existing tumors (Example 2)", "type": "in vivo, athymic mice", "details": "GCV 25 mg/kg BID 7 days from 24 h after fibroblast injection; tumors weighed 14 days after start; FIG. 4", "description": "5 athymic (immuno-incompetent) mice were injected subcutaneously with 1×10^7 tumor cells known to have either high (9L glial tumor cells) or low (C6 glial tumor cells) levels of gap junction mediated intercellular transport. 1×10^7 HSV-tk^+ fibroblasts (PA317 cells) were injected into the center of tumors that were formed. GCV therapy (25 mg/kg, BID) was commenced 24 hours later and continued for 7 days. 14 days following the initiation of GCV treatment the tumors were removed and weighed.\nThese findings indicate the importance of gap junction mediated transport for the bystander killing of tumor cells."}, "[1]": {"system": "9L tumor cells mixed with HSV-tk+ fibroblasts expressing connexin43", "assay": "GCV treatment of 9L tumors with HSV-tk+ fibroblasts expressing connexin43 (Example 4)", "type": "in vivo, athymic mice", "description": "(§1) 5 athymic (immuno-incompetent) mice were injected subcutaneously with mixtures of 1×10^7 9L tumor cells and either immortalized connexin43^- mouse fibroblasts engineered to express HSV-tk (5 mice) or immortalized mouse fibroblasts from normal mice which express connexin 43 and had also been engineered to express HSV-tk (5 mice). The inoculated cells were allowed to grow into tumors. The tumor-bearing animals were treated with GCV (25 mg/kg) for 7 days. Tumor size was monitored and 14 days following the initiation of GCV treatment the tumors were removed. In a parallel experiment, animals injected with a mixture of 1×10^79L tumor cells and with immortalized connexin43^- mouse fibroblasts engineered to express HSV-tk were mock-treated with sham injections of phosphate buffeted saline (PBS) lacking GCV.\nOf the 5 animals with tumors consisting of 9L cells and HSV-tk^+ fibroblasts expressing connexin43, only 3 animals still had detectable tumors when examined 7 days after the completion of GCV therapy. […] A matched control group of 5 animals which received sham injections of phosphate buffeted saline (PBS) instead of GCV all had tumors 7 days after the completion of this \"sham treatment\"."}, "[2]": {"system": "9L glial tumor cells mixed with PA317 fibroblasts expressing HSV-tk", "assay": "GCV tumor toxicity, co-injected tumor cells and HSV-tk PA317 fibroblasts (Example 1)", "type": "in vivo, athymic BALB/C mice", "details": "GCV 25 mg/kg BID 7 days; tumors removed 14 days after start of GCV; 9L (high coupling) vs C6 (low coupling); FIG. 3", "description": "The HSV-tk gene was stably cloned into a PA/317 fibroblasts as described in Mol. Cell. Biol. 6:2895-2902 (1986) and New Eng. J. Med. 232:570-578 (1990). Athymic (immune-incompetent) BALB/C mice were injected subcutaneously with mixtures of: 1) 1×10^7 tumor cells known to have either high (9L glial tumor cells) or low (C6 glial tumor cells) levels of gap junction mediated intercellular transport, and 2) 1×10^7 immortalized mouse fibroblasts (PA317 cells) engineered to express HSV-tk. The mixtures of inoculated cells were allowed to grow into tumors over a period of 7-14 days (the time for detectable tumor formation varied depending on the identity and number of injected cells). The tumor-bearing animals were then treated for 7 days with GCV (25 mg/kg, BID) or with phosphate buffeted saline (PBS). Tumor size was periodically monitored.\n14 days following the initiation of GCV treatment the tumors were removed. FIG. 3 summarizes the average weight of tumors following their removal. […] Thus, tumor toxicity was greater in tumors with higher levels of gap junction mediated intercellular transport."}, "[3]": {"system": "9L tumor cells mixed with HSV-tk+ connexin43- fibroblasts", "assay": "GCV treatment of 9L tumors with HSV-tk+ connexin43- fibroblasts (Example 4)", "type": "in vivo, athymic mice", "description": "as §1\nTwo other groups of 5 animals inoculated with mixtures of 9L cells and HSV-tk^+ fibroblasts derived from cells lacking any connexin43 genes were identically treated."}},
  "data": [
    {"smiles": "Nc1nc(O)c2ncn(COC(CO)CO)c2n1", "note": "[GCV, Ganciclovir]", "values": [
      {"measurement": "effect of GCV treatment on tumor weight, 9L versus C6 tumors", "setting": "9L glial tumor cells", "value": "greater in 9L cells"},
      {"measurement": "animals with detectable tumors (of 5)", "setting": "[1]; 7 days after completion of GCV therapy, 5 animals in group", "value": 3, "unit": "animals"},
      {"measurement": "average tumor weight", "setting": "[1]; GCV 25 mg/kg 7 days, 7 days after completion of GCV therapy, PBS sham control 4.35 g", "value": 0.63, "unit": "g"},
      {"measurement": "therapeutic effect of GCV administration against tumors", "setting": "[1]; GCV 25 mg/kg 7 days, fibroblasts with normal connexin 43 genes, FIG. 6", "value": "highly therapeutic effect"},
      {"measurement": "tumor size (average weight of tumors) versus C6 tumors treated with GCV", "setting": "[2]", "value": "significantly smaller"},
      {"measurement": "therapeutic effect of GCV administration against tumors", "setting": "[3]; GCV 25 mg/kg 7 days, fibroblasts with connexin genes deleted, FIG. 6", "value": "not effective"},
      {"measurement": "animals with tumors (of 5)", "setting": "[3]; after 7 days of GCV treatment, 5 animals in group", "value": 5, "unit": "animals"},
      {"measurement": "average tumor weight", "setting": "[3]; after 7 days of GCV treatment, group without GCV 5.68 g", "value": 5.43, "unit": "g"}
    ]}
  ]
}
